Calls of active or inactive are those of the source.
Assays:
Insulin-degrading enzyme [1] = biological target: T1, Insulin-degrading enzyme (Homo sapiens, UniProt P14735); assay: cellular IDE activation of Abeta substrate cleavage – fluorescence polarization, HEK cells, dose response (AID 588439); assay type: functional, cell-based
T1 sequence (P14735 whole entry): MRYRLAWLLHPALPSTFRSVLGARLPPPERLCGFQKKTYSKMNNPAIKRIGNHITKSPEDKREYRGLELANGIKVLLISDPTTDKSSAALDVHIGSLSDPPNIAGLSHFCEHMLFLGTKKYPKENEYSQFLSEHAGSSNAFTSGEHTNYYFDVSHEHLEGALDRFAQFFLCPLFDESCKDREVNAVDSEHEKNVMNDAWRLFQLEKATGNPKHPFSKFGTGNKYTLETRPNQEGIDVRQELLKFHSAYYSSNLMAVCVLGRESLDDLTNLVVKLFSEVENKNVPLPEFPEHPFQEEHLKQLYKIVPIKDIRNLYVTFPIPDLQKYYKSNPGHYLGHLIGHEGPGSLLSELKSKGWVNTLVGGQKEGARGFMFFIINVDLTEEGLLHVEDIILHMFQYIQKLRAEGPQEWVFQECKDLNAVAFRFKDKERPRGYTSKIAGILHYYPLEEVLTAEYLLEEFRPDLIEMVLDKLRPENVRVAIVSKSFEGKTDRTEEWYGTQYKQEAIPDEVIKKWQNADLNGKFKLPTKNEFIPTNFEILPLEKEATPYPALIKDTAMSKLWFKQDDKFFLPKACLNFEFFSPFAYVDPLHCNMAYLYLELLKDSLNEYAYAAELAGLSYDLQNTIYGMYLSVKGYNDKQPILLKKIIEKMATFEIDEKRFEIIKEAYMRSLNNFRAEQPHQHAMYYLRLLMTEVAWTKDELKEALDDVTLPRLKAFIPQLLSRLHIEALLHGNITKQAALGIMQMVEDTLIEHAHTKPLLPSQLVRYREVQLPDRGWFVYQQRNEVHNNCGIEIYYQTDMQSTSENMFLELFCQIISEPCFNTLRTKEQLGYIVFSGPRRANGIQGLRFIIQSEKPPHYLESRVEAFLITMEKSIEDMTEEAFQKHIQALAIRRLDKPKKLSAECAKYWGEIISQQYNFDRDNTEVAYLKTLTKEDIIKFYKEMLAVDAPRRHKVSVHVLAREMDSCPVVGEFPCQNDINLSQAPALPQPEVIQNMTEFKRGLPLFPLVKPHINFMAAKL

Insulin-degrading enzyme [2] = biological target: T1, Insulin-degrading enzyme; assay: recombinant IDE activation, cell-free – biochemical, fluorescence polarization, counter-screen for IDE activator project, dose response (AID 588681)
HEK293 [3] = assay: optical interference in Abeta FP readout, dose response, artefact control for IDE activator project, biochemical, fluorescence polarization (AID 588442); assay type: functional, cell-based; conditions: Homo sapiens
HEK293 [4] = assay: membrane integrity loss in HEK cells – cell-based, fluorescence, cytotoxicity control for IDE activator project, dose response (AID 588440); assay type: functional; conditions: Homo sapiens;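 further: cytotoxicity by LDH release measuring loss of membrane integrity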
[5] = biological target: G-protein coupled receptor 35 (Homo sapiens, UniProt Q9HC97); assay: inhibition of zaprinast-stimulated GPR35 beta-arrestin translocation – imaging, U2OS, beta-arrestin-GFP, zaprinast agonist, primary screen (AID 2058); assay type: functional;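 further: antagonist potency meaning inhibition of agonist-induced arrestin redistribution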
Beta-lactamase [6] = biological target: Beta-lactamase (Pseudomonas aeruginosa, UniProt Q79MP6);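 further: biochemical dose-response test of metallo-beta-lactamase enzyme inhibition, read out by epi-absorbance; purified recombinant IMP-1 metallo-beta-lactamase with nitrocefin as substrate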
Beta-lactamase [7] = biological target: Beta-lactamase (Salmonella choleraesuis (strain SC-B67), UniProt Q5J463)
[8] = biological target: T2, Calpain-2 catalytic subunit (Sus scrofa, UniProt P43367); assay: m-calpain protease blockers, concentration series – biochemical, fluorogenic peptide substrate, dose response (AID 1420); assay type: functional
T2 sequence (P43367 whole entry): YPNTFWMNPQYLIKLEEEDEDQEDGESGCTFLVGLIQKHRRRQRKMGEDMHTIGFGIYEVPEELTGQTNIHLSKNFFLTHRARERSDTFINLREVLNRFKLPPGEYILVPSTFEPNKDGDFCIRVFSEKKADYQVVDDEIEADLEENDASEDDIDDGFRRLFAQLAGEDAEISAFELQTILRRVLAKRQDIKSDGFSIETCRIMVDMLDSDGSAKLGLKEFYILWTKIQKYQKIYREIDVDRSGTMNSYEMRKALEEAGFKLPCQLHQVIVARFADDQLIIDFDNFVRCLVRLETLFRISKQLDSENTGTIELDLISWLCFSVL

[9] = mitochondrial function rescue without frataxin homolog – Friedreich's ataxia, plus single-dose screen, dose response (AID 1465); assay type: functional;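 further: yeast depleted of Yfh1p frataxin homolog grown on glycerol needing respiration; WST-1 tetrazolium dye reduction as measure of cellular dehydrogenase metabolic activity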
[10] = biological target: T3, Sentrin-specific protease 6 (Homo sapiens, UniProt Q9GZR1); assay type: functional;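 further: Luminescence-based dose-response confirmatory assay of SENP6 inhibition, following up an ultra-high-throughput screen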
T3 sequence (Q9GZR1 whole entry): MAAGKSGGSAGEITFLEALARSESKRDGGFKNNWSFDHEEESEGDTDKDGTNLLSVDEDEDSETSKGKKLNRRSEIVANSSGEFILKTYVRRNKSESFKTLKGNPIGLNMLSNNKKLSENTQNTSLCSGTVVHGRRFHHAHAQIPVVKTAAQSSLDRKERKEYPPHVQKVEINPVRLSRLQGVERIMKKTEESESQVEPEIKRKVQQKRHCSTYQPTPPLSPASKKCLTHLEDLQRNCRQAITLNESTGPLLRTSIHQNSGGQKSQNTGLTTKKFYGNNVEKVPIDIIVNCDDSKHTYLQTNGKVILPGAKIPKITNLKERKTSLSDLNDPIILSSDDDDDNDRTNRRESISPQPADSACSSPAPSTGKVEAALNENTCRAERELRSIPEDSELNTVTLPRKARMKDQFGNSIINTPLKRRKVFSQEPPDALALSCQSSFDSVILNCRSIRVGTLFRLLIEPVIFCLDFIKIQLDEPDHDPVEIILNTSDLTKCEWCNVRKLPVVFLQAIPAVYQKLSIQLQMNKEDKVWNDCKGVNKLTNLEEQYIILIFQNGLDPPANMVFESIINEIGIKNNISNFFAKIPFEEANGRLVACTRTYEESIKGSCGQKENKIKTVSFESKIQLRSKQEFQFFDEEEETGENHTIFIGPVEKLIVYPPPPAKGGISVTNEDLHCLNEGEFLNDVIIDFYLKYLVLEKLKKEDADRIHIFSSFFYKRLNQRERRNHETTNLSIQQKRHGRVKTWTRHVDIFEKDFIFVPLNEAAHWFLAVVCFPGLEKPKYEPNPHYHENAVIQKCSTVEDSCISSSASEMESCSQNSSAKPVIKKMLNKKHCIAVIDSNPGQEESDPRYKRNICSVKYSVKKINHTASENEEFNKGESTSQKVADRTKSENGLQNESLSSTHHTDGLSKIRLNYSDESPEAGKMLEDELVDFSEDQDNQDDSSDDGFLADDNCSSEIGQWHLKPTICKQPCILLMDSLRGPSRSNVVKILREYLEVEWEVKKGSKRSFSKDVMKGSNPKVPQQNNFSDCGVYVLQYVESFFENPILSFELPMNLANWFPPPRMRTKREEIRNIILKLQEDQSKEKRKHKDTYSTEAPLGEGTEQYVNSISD

[11] = biological target: T4, Sentrin-specific protease 8 (Homo sapiens, UniProt Q96LD8); assay type: functional;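 further: luminescence read-out of SENP8 inhibition, dose-response confirmation following an ultra-high-throughput screen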
T4 sequence (Q96LD8 whole entry): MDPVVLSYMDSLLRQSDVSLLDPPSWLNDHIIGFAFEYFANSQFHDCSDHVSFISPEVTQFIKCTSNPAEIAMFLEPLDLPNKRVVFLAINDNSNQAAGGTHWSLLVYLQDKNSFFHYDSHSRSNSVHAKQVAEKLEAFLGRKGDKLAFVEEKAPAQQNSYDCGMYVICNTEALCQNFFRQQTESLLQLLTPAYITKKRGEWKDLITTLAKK

[12] = biological target: T5, Microphthalmia-associated transcription factor (Homo sapiens, UniProt O75030); assay: reducers of TRPM1 reporter luminescence, concentration series – cell-based, SK-MEL-5, cherry-picked, set 3, MITF inhibitor project, dose response (AID 493073); assay type: functional;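 further: SK-MEL-5 melanoma cells with luciferase driven by the MITF target TRPM1 promoter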
T5 sequence (O75030 whole entry): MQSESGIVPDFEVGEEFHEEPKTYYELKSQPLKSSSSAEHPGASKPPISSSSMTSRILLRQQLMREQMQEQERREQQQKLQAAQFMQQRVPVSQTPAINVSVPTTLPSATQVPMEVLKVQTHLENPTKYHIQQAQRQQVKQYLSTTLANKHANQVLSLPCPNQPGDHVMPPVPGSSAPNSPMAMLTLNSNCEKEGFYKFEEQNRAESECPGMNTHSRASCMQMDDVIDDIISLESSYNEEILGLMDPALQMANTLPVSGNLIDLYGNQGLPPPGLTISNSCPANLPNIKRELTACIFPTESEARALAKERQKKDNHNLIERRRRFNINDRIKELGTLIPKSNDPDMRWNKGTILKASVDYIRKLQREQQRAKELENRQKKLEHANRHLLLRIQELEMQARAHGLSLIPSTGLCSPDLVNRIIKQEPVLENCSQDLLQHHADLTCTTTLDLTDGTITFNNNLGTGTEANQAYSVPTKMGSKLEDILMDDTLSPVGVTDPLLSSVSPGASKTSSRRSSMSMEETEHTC

[13] = biological target: Apoptotic protease-activating factor 1 (Homo sapiens, UniProt O14727); assay type: functional
Caspase-3 = biological target: T6, Caspase-3 (Homo sapiens, UniProt P42574); assay type: functional;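 further: Dose-response selectivity test against caspase-3 for candidate inhibitors of sentrin-specific proteases (SENPs)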
T6 sequence (P42574 whole entry): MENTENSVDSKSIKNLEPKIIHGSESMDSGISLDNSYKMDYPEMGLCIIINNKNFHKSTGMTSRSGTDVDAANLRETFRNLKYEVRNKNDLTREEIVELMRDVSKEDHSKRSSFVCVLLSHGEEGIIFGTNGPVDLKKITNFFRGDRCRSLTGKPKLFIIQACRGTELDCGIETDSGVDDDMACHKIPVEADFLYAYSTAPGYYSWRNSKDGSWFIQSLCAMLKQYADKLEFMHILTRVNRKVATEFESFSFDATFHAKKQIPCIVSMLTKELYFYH

[14] = biological target: T7, Sentrin-specific protease 7 (Homo sapiens, UniProt Q9BQF6); assay type: functional;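 further: Luminescence-based dose-response confirmation of ultra-high-throughput screening hits, measuring inhibition of SENP7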
T7 sequence (Q9BQF6 whole entry): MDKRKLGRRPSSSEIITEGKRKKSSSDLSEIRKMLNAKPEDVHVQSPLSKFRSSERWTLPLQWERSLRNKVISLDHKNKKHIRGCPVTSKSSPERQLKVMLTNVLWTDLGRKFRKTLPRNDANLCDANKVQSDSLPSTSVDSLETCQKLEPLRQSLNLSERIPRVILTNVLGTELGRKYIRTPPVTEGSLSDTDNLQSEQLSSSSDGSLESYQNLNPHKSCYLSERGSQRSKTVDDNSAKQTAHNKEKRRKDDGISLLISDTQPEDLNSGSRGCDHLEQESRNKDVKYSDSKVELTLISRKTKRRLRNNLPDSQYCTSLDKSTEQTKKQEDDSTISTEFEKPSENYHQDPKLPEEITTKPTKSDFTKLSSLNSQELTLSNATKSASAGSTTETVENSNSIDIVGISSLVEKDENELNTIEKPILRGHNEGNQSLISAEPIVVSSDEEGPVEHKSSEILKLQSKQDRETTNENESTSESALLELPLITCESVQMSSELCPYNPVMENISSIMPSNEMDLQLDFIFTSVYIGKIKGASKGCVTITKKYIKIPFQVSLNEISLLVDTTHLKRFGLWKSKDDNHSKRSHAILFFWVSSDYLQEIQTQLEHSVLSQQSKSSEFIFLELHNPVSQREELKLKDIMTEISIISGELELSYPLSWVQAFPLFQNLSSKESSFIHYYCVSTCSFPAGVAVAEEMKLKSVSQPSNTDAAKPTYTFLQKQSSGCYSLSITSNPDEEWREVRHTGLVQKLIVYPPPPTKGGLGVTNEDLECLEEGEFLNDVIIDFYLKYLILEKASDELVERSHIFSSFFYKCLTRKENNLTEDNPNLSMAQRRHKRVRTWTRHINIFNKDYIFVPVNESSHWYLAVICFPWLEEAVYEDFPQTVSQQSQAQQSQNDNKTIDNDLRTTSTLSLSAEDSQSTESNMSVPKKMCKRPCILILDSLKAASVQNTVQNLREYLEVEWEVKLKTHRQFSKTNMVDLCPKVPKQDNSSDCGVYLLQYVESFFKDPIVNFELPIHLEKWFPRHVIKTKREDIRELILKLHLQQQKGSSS

Aurora kinase A = biological target: T8, Aurora kinase A (Homo sapiens, UniProt O14965); assay type: functional;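 further: value from the Navigating the Kinome kinase panel profiling, panel entry STK6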
T8 sequence (O14965 whole entry): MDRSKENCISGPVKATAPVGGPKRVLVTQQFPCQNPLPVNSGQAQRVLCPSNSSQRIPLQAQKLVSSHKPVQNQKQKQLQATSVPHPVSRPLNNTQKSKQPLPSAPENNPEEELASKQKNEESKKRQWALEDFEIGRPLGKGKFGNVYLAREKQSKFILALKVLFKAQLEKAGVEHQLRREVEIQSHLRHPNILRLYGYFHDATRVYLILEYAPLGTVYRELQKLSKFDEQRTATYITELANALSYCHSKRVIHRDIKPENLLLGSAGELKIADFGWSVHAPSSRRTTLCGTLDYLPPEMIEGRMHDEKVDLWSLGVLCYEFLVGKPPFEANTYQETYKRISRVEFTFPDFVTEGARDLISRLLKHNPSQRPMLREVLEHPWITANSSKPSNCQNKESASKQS

Aurora kinase B = Aurora kinase B (Homo sapiens, UniProt Q96GD4); assay type: functional
[15] = biological target: ALK tyrosine kinase receptor (Homo sapiens, UniProt Q9UM73); assay type: functional;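 further: ALK tested as one member of a kinase panel screen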
Chain of ALK tyrosine kinase receptor (Q9UM73 whole entry): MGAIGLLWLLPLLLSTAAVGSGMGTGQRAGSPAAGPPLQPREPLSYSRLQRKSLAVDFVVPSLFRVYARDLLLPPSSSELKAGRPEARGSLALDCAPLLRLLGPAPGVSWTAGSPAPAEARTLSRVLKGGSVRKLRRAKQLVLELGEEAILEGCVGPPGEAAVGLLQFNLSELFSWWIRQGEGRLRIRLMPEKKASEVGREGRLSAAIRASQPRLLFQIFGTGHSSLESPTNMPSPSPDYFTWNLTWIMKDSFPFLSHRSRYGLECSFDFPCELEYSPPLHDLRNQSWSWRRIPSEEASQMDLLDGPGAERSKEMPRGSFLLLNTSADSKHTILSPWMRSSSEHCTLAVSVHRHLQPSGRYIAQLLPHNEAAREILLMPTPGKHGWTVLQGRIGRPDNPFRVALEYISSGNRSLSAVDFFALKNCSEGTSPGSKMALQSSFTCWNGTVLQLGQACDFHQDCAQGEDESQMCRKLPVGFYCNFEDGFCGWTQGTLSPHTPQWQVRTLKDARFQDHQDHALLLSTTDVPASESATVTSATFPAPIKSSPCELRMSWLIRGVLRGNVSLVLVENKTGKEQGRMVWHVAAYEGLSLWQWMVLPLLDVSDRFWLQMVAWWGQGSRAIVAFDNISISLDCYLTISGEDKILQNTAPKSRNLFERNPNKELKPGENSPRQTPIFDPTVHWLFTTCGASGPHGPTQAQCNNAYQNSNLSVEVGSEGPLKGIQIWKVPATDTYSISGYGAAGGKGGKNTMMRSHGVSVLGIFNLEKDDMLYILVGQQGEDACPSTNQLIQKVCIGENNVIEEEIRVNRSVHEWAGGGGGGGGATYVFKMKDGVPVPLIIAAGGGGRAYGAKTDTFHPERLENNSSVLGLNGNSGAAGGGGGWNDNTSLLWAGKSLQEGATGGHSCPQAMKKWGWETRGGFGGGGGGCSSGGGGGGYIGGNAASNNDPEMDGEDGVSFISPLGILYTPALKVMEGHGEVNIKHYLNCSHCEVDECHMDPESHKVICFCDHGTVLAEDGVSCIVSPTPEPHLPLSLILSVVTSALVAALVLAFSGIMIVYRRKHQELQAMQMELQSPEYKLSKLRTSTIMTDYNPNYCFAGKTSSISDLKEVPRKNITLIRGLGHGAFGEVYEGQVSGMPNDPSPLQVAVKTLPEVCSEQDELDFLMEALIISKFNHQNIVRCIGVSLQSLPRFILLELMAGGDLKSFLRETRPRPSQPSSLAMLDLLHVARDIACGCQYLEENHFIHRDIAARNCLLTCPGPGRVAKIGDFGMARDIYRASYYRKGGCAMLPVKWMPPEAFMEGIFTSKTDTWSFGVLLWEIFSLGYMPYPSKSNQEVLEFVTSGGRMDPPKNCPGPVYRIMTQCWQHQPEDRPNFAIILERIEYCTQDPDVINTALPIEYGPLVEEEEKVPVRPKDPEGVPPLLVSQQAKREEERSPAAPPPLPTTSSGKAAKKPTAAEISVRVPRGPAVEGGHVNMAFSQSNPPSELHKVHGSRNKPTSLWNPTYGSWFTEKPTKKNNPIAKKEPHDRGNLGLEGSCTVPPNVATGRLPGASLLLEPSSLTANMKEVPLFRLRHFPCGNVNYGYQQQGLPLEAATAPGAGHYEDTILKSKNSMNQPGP

Chain of G-protein coupled receptor 35 (Q9HC97 whole entry): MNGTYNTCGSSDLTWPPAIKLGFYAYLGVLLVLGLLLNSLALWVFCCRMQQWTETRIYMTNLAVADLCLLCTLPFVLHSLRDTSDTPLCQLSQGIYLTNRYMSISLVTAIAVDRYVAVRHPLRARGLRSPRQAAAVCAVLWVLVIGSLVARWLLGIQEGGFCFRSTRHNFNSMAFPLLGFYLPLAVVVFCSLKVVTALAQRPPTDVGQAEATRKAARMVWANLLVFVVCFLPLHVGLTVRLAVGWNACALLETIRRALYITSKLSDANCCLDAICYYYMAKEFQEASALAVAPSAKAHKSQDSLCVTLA
Chain of Beta-lactamase (Pseudomonas aeruginosa, UniProt Q79MP6) (Q79MP6 whole entry): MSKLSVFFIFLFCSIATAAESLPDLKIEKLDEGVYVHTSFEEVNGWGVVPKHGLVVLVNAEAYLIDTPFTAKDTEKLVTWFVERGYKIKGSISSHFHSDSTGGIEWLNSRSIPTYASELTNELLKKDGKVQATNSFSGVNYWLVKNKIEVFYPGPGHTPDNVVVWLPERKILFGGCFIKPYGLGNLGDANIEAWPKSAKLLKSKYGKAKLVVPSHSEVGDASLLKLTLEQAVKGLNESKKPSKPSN
Chain of Beta-lactamase (Salmonella choleraesuis (strain SC-B67), UniProt Q5J463) (Q5J463 whole entry): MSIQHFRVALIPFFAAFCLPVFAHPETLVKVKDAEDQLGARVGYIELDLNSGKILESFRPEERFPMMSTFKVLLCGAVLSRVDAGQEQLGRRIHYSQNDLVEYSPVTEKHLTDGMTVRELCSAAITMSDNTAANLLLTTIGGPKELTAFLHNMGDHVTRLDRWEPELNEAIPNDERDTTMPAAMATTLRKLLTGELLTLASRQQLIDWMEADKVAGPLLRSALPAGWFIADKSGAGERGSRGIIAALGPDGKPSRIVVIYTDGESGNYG
Chain of Apoptotic protease-activating factor 1 (O14727 whole entry): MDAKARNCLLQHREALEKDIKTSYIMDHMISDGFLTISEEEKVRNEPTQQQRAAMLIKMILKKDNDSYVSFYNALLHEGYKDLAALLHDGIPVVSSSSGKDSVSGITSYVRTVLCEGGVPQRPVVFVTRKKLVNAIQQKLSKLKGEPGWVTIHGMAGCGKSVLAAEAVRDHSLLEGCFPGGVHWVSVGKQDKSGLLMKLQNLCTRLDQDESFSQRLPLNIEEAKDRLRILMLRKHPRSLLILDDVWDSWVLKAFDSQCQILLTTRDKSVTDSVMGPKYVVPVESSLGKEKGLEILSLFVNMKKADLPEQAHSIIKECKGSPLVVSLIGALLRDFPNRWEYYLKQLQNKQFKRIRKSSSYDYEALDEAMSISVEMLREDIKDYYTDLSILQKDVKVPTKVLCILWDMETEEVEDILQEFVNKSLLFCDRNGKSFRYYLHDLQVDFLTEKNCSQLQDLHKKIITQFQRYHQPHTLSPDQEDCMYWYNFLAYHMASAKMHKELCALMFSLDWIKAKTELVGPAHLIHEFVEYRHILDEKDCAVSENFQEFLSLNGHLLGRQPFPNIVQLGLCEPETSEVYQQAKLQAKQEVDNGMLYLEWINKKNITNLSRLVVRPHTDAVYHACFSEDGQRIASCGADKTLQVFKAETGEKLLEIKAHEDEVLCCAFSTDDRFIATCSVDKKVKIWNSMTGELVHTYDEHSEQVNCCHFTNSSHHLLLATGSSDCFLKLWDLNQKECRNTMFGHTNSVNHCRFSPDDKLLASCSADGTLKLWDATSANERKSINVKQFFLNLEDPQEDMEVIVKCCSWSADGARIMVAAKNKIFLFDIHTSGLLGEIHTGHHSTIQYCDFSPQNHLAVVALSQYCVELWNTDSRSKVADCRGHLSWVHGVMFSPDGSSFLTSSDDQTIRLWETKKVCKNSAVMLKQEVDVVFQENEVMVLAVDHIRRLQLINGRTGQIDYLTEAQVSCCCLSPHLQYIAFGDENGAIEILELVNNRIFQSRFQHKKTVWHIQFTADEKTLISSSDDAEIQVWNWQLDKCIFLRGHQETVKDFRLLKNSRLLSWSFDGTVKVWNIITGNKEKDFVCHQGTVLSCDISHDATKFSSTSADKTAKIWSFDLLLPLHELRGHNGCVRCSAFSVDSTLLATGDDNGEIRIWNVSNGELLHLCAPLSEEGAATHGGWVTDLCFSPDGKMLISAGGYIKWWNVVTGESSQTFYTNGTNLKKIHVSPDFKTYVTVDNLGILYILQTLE
Chain of Aurora kinase B (Q96GD4 whole entry): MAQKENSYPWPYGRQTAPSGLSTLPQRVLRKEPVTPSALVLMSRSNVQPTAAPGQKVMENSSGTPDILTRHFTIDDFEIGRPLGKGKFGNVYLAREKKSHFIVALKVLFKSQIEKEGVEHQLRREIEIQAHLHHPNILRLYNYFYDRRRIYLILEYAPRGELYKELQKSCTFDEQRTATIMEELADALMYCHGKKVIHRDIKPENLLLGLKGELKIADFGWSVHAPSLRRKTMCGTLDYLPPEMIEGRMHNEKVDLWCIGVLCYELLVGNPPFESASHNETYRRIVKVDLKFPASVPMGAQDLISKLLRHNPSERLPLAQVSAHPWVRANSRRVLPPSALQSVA

With `CC(=O)N1CCc2cc(S(=O)(=O)NCCC(=O)N3CCN(Cc4ccccc4)CC3)ccc21` the EC50 (Insulin-degrading enzyme [1]) was > 54.7 µM (inactive), the EC50 (Insulin-degrading enzyme [2]) was > 54.7 µM (inactive) and the EC50 (HEK293 [3]) was > 54.7 µM (inactive). For the same molecule, the IC50 (HEK293 [4]) was > 89.2 µM (inactive).
For `CCN1CCN(C2=CC3=CC(=C(C#N)C#N)CCC3CC2)CC1` (configuration not stated), the IC50 [5] was 1.67 µM (active), the EC50 (Insulin-degrading enzyme [1]) was > 54.7 µM (inactive) and the IC50 (Beta-lactamase [6]) was 4.22 µM (active). For the same molecule, the IC50 (Beta-lactamase [7]) was 3.08 µM (active), the EC50 (Insulin-degrading enzyme [2]) was > 54.7 µM (inactive) and the IC50 [8] was 30.6 µM (not active). The EC50 (HEK293 [3]) was > 54.7 µM (inactive), the EC50 [9] was > 100 µM (active) and the IC50 (HEK293 [4]) was > 89.2 µM (inactive).
In the case of `CC(=O)NC1=C(N(C)C2CCS(=O)(=O)C2)C(=O)c2ccccc2C1=O` (configuration not stated), the IC50 [10] is reported as 5.25 µM (active), the IC50 [11] is reported as 13.4 µM (active) and the AC50 [12] is reported as 21.2 µM (active). The IC50 [13] was 22 µM (active), the IC50 (Caspase-3) was 17 µM (active) and the IC50 [14] was 13 µM (active).
In the case of `NC1CCN(C(=O)c2ccc3c(c2)[nH]c(=O)c2cccn23)CC1`, the Ki (Aurora kinase A) is reported as > 2 µM (inactive), the Ki (Aurora kinase B) is reported as 0.158 µM (active) and the Ki [15] is reported as > 3.16 µM (inactive).

Source: ChEMBL document CHEMBL1201862, “PubChem BioAssay data set” (2004)
